Laboratory results as given in patent publication US10745382B2 (BRISTOL-MYERS SQUIBB COMPANY, priority 2015, dated 2020).
Like-named read-outs stand apart in the source and are kept apart here.

Target: T1, PD-1/PD-L1 (Homo sapiens, UniProt Q9NZQ7)
T1 construct: made in house; host or cells: HEK293T
Assay: PD-1/PD-L1 Homogenous Time-Resolved Fluorescence (HTRF) binding assay
Conditions: PD-L1-His 10 nM, PD-1-Ig 20 nM, read-out: Range or IC50
Summary of the method: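 Compounds are tested for blocking the PD-1/PD-L1 interaction in dPBS supplemented with 0.1% BSA and 0.05% (v/v) Tween-20. Tagged proteins are detected with Eu-cryptate anti-Ig and APC anti-His at 1 and 20 nM final.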

T1 sequence (Q9NZQ7 with tags, fused parts or gaps): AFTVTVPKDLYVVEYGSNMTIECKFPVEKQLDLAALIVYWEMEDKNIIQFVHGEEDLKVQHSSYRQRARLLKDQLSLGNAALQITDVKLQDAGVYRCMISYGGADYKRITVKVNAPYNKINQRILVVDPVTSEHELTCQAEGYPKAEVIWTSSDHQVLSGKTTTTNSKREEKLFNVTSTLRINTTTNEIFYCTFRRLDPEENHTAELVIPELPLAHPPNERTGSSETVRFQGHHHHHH

Row | SMILES | IC50 (value given as range class) | IC50 (numeric IC50)
1 | CC(=O)N[C@@H]1CCN(CCCOc2cccc(-c3cccc(COc4cc(OCc5cncc(C#N)c5)c(CN[C@@](C)(CO)C(=O)O)cc4Cl)c3C)c2C)C1 [Example 2270, (2S)-2-(4-((3′-(3-((R)-3-acetamidopyrrolidin-1-yl)propoxy)-2,2′-dimethylbiphenyl-3-yl)methoxy)-5-chloro-2-((5-cyanopyridin-3-yl)methoxy)benzylamino)-3-hydroxy-2-methylpropanoic Acid] | 0.21 to 10 nM | –
2 | Cc1c(COc2cc(OCc3cncc(C(N)=O)c3)c(CN[C@H](CO)C(=O)O)cc2Cl)cccc1-c1cccc(OCCCN2CCC(O)(C(=O)O)CC2)c1C [Example 1035, (R)-1-(3-((3′-((5-((5-carbamoylpyridin-3-yl)methoxy)-4-(((1-carboxy-2-hydroxyethyl)amino)methyl)-2-chlorophenoxy)methyl)-2,2′-dimethyl-[1,1′-biphenyl]-3-yl)oxy)propyl)-4-hydroxypiperidine-4-carboxylic Acid] | 0.21 to 10 nM | –
3 | Cc1c(COc2cc(OCc3cncc(C#N)c3)c(CN3CCCC[C@H]3C(=O)O)cc2Cl)cccc1-c1cccc(C(=O)N(C)C)c1C [Example 4030, (S)-1-(5-chloro-2-((5-cyanopyridin-3-yl)methoxy)-4-((3′-(dimethylcarbamoyl)-2,2′-dimethyl-[1,1′-biphenyl]-3-yl)methoxy)benzyl)piperidine-2-carboxylic Acid] | 100 to 2000 nM | –
4 | Cc1c(COc2cc(OCc3cncc(C#N)c3)c(CNC(C)(CO)CO)cc2Cl)cccc1-c1cccc(OCCCNC[C@H](O)CO)c1C [Example 2297, (S)-5-((4-chloro-2-(((1,3-dihydroxy-2-methylpropan-2-yl)amino)methyl)-5-((3′-(3-((2,3-dihydroxypropyl)amino)propoxy)-2,2′-dimethyl-[1,1′-biphenyl]-3-yl)methoxy)phenoxy)methyl)nicotinonitrile] | 0.21 to 10 nM | –
5 | CCOC(=O)CC1(O)CCN(CCC2COc3ccc(-c4cccc(COc5cc(OCc6cncc(S(C)(=O)=O)c6)c(CN6CCCC[C@H]6C(=O)OC)cc5Cl)c4C)cc3O2)C1 (mixture of isomers) [Example 1527, (2S)-methyl 1-(5-chloro-4-((3-(3-(2-(3-(2-ethoxy-2-oxoethyl)-3-hydroxypyrrolidin-1-yl)ethyl)-2,3-dihydrobenzo[b][1,4]dioxin-6-yl)-2-methylbenzyl)oxy)-2-((5-(methylsulfonyl)pyridin-3-yl)methoxy)benzyl)piperidine-2-carboxylate] | 10 to 100 nM | –

Further lines, results first:

Row | IC50 (value given as range class) | IC50 (numeric IC50) | SMILES
6 | 0.21 to 10 nM | – | Cc1cc(OCCCN2CC[C@@H](O)C2)ccc1-c1cccc(COc2cc(OCc3cncc(C#N)c3)c(CN3CCCC[C@H]3C(=O)O)cc2Cl)c1C [Example 1071, (S)-1-(5-chloro-2-((5-cyanopyridin-3-yl)methoxy)-4-((4′-(3-((R)-3-hydroxypyrrolidin-1-yl)propoxy)-2,2′-dimethyl-[1,1′-biphenyl]-3-yl)methoxy)benzyl)piperidine-2-carboxylic Acid]
7 | – | 30 nM | Cc1c(COc2cc(OCc3cncc(C#N)c3)c(CN3CCCC[C@H]3C(=O)O)cc2Cl)cccc1-c1cccc(OCCCN2CCN(c3ccccn3)CC2)c1C [Example 2216, (2S)-1-(5-chloro-2-((5-cyanopyridin-3-yl)methoxy)-4-((2,2′-dimethyl-3′-(3-(4-(pyridin-2-yl)piperazin-1-yl)propoxy)biphenyl-3-yl)methoxy)benzyl)piperidine-2-carboxylic Acid]
8 | 0.21 to 10 nM | – | Cc1c(COc2cc(OCc3cncc(C#N)c3)c(CN3CCNC(=O)C3)cc2Cl)cccc1-c1cccc(OCCCN2CC[C@@H](O)C2)c1C [Example 2331, (R)-5-((4-chloro-5-((3′-(3-(3-hydroxypyrrolidin-1-yl)propoxy)-2,2′-dimethyl-[1,1′-biphenyl]-3-yl)methoxy)-2-((3-oxopiperazin-1-yl)methyl)phenoxy)methyl)nicotinonitrile]
